From patent US9244060B2, “Site localization and methods for monitoring treatment of disturbed blood vessels” (Warsaw Orthopedic, Inc., priority 2009, dated 2016)

Settings: rat, in vivo
Experimental: Female Sprague-Dawley rats (Harlan Sprague-Dawley, Indianapolis, Ind.), weighing 250-300 grams each were given free access to food and water before the experiment. The animals were anesthetized with ketamine (80 mg/kg) and xylazine (10 mg/kg). Brain temperatures were monitored using a rectal thermometer. The animals' body temperature was maintained at 37° C. by using a water-jacketed heating pad. Brain temperature was monitored for 1 hour prior to injury to 6 hours following injury and was recorded at 30-minute intervals.
Young adult female Sprague-Dawley rats received a spinal cord contusion using the Precision Systems and Instrumentation, LLC (Fairfax Station, Va.) pneumatic impactor. Prior to surgery, rats were assigned to different treatment groups based on a randomized block design so that on any given surgery day all treatment groups were included. The rats were anesthetized with ketamine (80 mg/.kg) and xylazine (10 mg/kg) before laminectomy was performed at the 10th thoracic vertebra (T10). The vertebral column was stabilized with angled clamps on the upper thoracic (T8) and lumber (T11) levels and the impactor with a tip diameter of 2 mm was delivered at approximately 150 kdynes onto the exposed, intact dura overlying the dorsal spinal cord. The impactor was immediately removed, the wound irrigated with saline and the muscle and skin openings sutured together.
Two hours following injury, 0.8% magnesium in 3350 formulations was administered by intravenous infusion of 5 mL/kg over a 30-min period. For repeated infusions, an interval of 6 hours was used between infusions and the right jugular vein was cannulated with PE 50 tubing. The cannula was secured through the back of the neck and capped between infusion periods. Animals were re-anesthetized for re-administration of compounds. The contents of the infusion vials were blinded to the investigators performing both the infusions and the analyses.
At various time points after infusion, cerebrospinal fluid and/or blood samples and/or spinal cord tissue with and without the injury site were collected. […]
Serum and CSF samples were analyzed for magnesium concentrations by the Clinical Pathology Department at WIL Research Laboratories, LLC, 1407 George Road, Ashland, Ohio 44805. […] The formation of the chromophore (and consequently a reduction of the xylidyl blue) is proportional to the concentration of Mg^2+, measured by the instrument as a decrease in the xylidyl blue absorbance (600 nm). […]
Tissue and plasma concentrations of PEG-3350 in rat plasma were measured using a validated high performance liquid chromatograpy tandem mass spectrometry (HPLC/MS/MS) method in positive electrospray ionization mode. […] The samples were analyzed with an HPLC/MS/MS assay using a Thermo Hypersil ODS column. […]

| time for Magnesium serum level to decrease to baseline level post-infusion | time at which Cmax of Magnesium serum level was observed (iv) | time for PEG plasma level to decrease to baseline level post-infusion | time at which Cmax of PEG plasma level was observed (iv) | Compound |
| --- | --- | --- | --- | --- |
| 30 to 60 min | at the end of the infusion |  |  | [Mg+2] [Magnesium, magnesium] |
|  |  | 30 to 60 min | at the end of the infusion | polyethylene glycol [PEG] |
